In the experiment the target is T1, human toll like receptor 7 (hTLR7) (Homo sapiens, UniProt Q9NYK1).
T1 construct: host or cells: HEK293 (HEK-Blue hTLR7)
T1 sequence (Q9NYK1 27-1049): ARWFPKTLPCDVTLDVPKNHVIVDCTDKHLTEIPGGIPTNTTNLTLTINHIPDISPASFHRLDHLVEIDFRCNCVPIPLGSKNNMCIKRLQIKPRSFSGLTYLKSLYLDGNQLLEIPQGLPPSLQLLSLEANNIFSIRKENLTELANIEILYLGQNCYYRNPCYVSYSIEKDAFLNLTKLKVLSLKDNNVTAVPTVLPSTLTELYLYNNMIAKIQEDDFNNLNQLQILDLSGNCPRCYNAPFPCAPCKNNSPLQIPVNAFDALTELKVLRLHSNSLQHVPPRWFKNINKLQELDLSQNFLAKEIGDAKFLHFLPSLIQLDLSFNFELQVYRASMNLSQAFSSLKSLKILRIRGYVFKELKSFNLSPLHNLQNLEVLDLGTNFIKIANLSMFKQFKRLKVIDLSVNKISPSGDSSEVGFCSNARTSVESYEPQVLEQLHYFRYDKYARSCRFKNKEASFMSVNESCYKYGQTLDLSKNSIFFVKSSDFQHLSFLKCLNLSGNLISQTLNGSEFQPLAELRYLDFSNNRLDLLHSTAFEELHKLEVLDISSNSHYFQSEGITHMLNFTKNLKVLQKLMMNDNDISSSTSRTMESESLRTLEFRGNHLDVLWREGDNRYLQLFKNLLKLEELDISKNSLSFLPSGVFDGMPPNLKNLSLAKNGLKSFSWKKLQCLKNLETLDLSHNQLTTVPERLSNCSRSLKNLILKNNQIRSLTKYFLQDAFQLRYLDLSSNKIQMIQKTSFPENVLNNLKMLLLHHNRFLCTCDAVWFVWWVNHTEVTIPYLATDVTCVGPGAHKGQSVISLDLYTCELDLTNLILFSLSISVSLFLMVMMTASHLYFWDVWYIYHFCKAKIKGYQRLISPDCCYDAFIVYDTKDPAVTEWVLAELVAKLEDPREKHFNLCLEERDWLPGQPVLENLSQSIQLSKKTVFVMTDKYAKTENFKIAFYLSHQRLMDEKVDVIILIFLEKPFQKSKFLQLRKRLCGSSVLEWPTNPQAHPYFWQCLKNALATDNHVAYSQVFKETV
Put plainly: hTLR7 cell functional assay (HEK-Blue hTLR7 SEAP reporter). Type of experiment: cell-based. Conditions: HEK293 cells stably overexpressing hTLR7, SEAP reporter; geometric mean when tested more than once. As to the method: The Examples described were tested for biological activity in functional cellular assays using HEK293 cells stably overexpressing human TLR7 or TLR8. The assays tested for the ability of each Example to stimulate secretion of interferon alpha (IFNα) in human primary blood mono nuclear cells (PBMC).
To determine the ability of each Example to activate the human toll like receptor 7 (hTLR7) or human toll like receptor 8 (hTLR8), cell-based reporter systems were utilized. HEK293 cells stably overexpressing either hTLR7 or hTLR8 along with a reporter gene containing an optimized secreted embryonic alkaline phosphatase gene (SEAP), under the control of the IFN-b minimal promoter fused to five NF-κB and AP-1-binding sites, were obtained from Invivogen (HEK-Blue™ hTLR7, cat #Hkb-ht1r7; HEK-Blue™ hTLR8, cat #Hkb-ht1r8). Stimulation of hTLR7 or hTLR8 in these cells activates NF-κB and AP-1 and induces the production of SEAP which can be quantified using an alkaline phosphatase detection reagent.
Cells were maintained in Dulbecco's Modified Eagle Media (DMEM) (containing Fetal Bovine Serum (FBS) heat inactivated (10%), Glutamax (2 mM), Penicillin/Streptomycin, Blasticidin (10 μg/ml), Zeocin (100 μg/ml) and Normocin (100 μg/ml)). On day one of the assay, Examples were prepared using 11-point half-log serial dilutions from a 10mM DMSO stock solution and 50 nl was spotted into 384-well Viewplates (PerkinElmer, cat #6007480). Positive control TLR7/8 agonist and negative control (DMSO, no Example) were also spotted within the assay plate and were used to determine percent effect during the analysis process. After resuspension in DMEM assay media containing FBS heat inactivated (10%), Glutamax (2 mM) and Penicillin/Streptomycin, 10,000 cells/20 μl/well were added to previously prepared plates. Plates were incubated overnight (16-20 hrs) at 37° C. in a 5% CO2 environment. Prewetted Microclime lids (Labcyte, LLS-0310) were used to prevent evaporation. On day two of the assay, QUANTI-Blue™ detection reagent was prepared by reconstituting QUANTI-Blue™ powder (InvivoGen, Rep-qb1) with 100 ml of sterile water and allowed to equilibrate to 37° C. for 15 minutes. 20 μl of QUANTI-Blue™ detection reagent was added to each well and plates were incubated at room temperature for 180 min. At the end of the incubation, plates were read on an Envision (Perkin Elmer) plate reader capturing absorbance at 650 nm.
Using Positive (TLR7/8 agonist) and Negative (DMSO) controls, the percent (%) effect was calculated for each Example using the following equation: effect=100−[100*{(Example−Positive Control)/(Negative Control−Positive Control)}]
The % effect at each concentration of each Example was calculated utilizing the ABase software suite (IBDS) and was relative to the amount of SEAP produced in the positive and negative control wells contained within each assay plate. The concentrations and % effect values for each Example were fit using a 4-parameter logistic model in ABase and the concentration of each Example that produced 50% response (EC50) was calculated.

Molecules are shown by their SMILES. pEC50: −log10 of the molar value.

Take `CCOCc1nc2c(N)nc(C)c(C)c2n1CC(C)(CO)COC` (single isomer, unassigned) [Example 6, 3-(4-amino-2-(ethoxymethyl)-6,7-dimethyl-1H-imidazo[4,5-c]pyridin-1-yl)-2-(methoxymethyl)-2-methylpropan-1-ol]: the negative-log EC50 (pEC50) is 7.31.
The figure for `CCOCc1nc2c(N)nc(C)c(C)c2n1CC(C)(CO)COC` (single isomer, unassigned) [Example 7, 3-(4-amino-2-(ethoxymethyl)-6,7-dimethyl-1H-imidazo[4,5-c]pyridin-1-yl)-2-(methoxymethyl)-2-methylpropan-1-ol] is 6.99.
The result for `CCOCc1nc2c(N)nc(C)c(C)c2n1CC(CO)CO` [Example 1, 2-((4-amino-2-(ethoxymethyl)-6,7-dimethyl-1H-imidazo[4,5-c]pyridin-1-yl)methyl)propane-1,3-diol] reads 6.19; that for `CCOCc1nc2c(N)nc(C)c(C)c2n1CC(C)(CO)CO` [Example 2, 2-((4-amino-2-(ethoxymethyl)-6,7-dimethyl-1H-imidazo[4,5-c]pyridin-1-yl)methyl)-2-methylpropane-1,3-diol], 7.27; that for `CCOCc1nc2c(N)nc3ccccc3c2n1CC(C)(CO)CO` [Example 3, 2-((4-amino-2-(ethoxymethyl)-1H-imidazo[4,5-c]quinolin-1-yl)methyl)-2-methylpropane-1,3-diol], 7.54.
With `Cc1nc(N)c2nc(CC(F)(F)F)n(CC(C)(CO)CO)c2c1C` [Example 8, 2-((4-amino-6,7-dimethyl-2-(2,2,2-trifluoroethyl)-1H-imidazo[4,5-c]pyridin-1-yl)methyl)-2-methylpropane-1,3-diol], the pEC50 is 7.11.
`CCOCc1nc2c(N)nc(C)c(C)c2n1CC(CC)(CO)CO` [Example 9, 2-((4-amino-2-(ethoxymethyl)-6,7-dimethyl-1H-imidazo[4,5-c]pyridin-1-yl)methyl)-2-ethylpropane-1,3-diol]: the pEC50 was 7.57.
`CCCCc1nc2c(N)nc3ccccc3c2n1CC(C)(CO)CO` [Example 10, 2-((4-amino-2-butyl-1H-imidazo[4,5-c]quinolin-1-yl)methyl)-2-methylpropane-1,3-diol] showed a pEC50 of 8.40.
Molecule `CCCCc1nc2c(N)nc3c(c2n1CC(C)(CO)CO)CCCC3` [Example 13, 2-((4-amino-2-butyl-6,7,8,9-tetrahydro-1H-imidazo[4,5-c]quinolin-1-yl)methyl)-2-methylpropane-1,3-diol] showed a pEC50 of 8.05.
In turn, `CCCCc1nc2c(N)nc3c(c2n1CC(C)(CO)CO)CCC3` [Example 14, 2-((4-amino-2-butyl-7,8-dihydrocyclopenta[b]imidazo[4,5-d]pyridin-1(6H)-yl)methyl)-2-methylpropane-1,3-diol] gave a pEC50 of 7.85.
The figure for `CCc1nc2c(N)nc3ccccc3c2n1CC(C)(CO)CO` [Example 15, 2-((4-amino-2-ethyl-1H-imidazo[4,5-c]quinolin-1-yl)methyl)-2-methylpropane-1,3-diol] is 7.12; for `CCCc1nc2c(N)nc3ccccc3c2n1CC(C)(CO)CO` [Example 16, 2-((4-amino-2-propyl-1H-imidazo[4,5-c]quinolin-1-yl)methyl)-2-methylpropane-1,3-diol] it is 7.72.

Values taken from US11976064B2, “Toll-like receptor agonists” (Pfizer Inc., priority 2019, dated 2024).
